For 26 molecules, activity change, negative = cytotoxicity and AC50 results are on record in PubChem BioAssay AID743353 (Broad Institute, 2014).

The source made the active and inactive calls.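 How the source made its calls: active means compound that lowers cell viability with a fitted AC50 at most twice its highest valid tested dose; inconclusive means flat curve with 30 to 70% loss, or poor fit; inactive means the rest.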

A word on the AC50: it is the midpoint of the concentration-response curve, whichever way the signal moves.

Test system in one test: not listed separately
Nature of the test: viability loss in HEK293 cells – cell-based, luminescence, dry powder, set 13, cytotoxicity control, dose response (AID 743353). The conditions noted are these: HEK293T viability, ATP luminescence CellTiter-Glo, 72 h; at 26 µM (top of the series). In general terms: ATP-based viability assays read luminescence as a measure of living cells.
For the molecule `N#Cc1ccc(N2CCN(C(=O)c3ccc4c(c3)OCO4)CC2)cc1`, the activity change, negative = cytotoxicity was -2.51% (inactive).
As to `COc1cc(C(=O)N2CCN(c3ccc(C(C)=O)cc3)CC2)cc2c1OCO2`, the activity change, negative = cytotoxicity was -13.3% (inactive).
For the molecule `CC(=O)c1ccc(N2CCN(C(=O)c3ccc4c(c3)OC(F)(F)O4)CC2)cc1`, the activity change, negative = cytotoxicity was -14.8% (inactive).
With `CC(=O)c1ccc(N2CCN(C(=O)c3ccc4ocnc4c3)CC2)cc1`, the activity change, negative = cytotoxicity is -8.67% (inactive).
Regarding `CC(=O)c1ccc(N2CCN(C(=O)c3ccc4c(c3C)OCO4)CC2)cc1`, the activity change, negative = cytotoxicity is -17% (inactive).
Take `O=C(c1ccc2c(c1)OCO2)N1CCN(c2ccc(S(=O)(=O)C(F)F)cc2)CC1`: the activity change, negative = cytotoxicity is -6.54% (inactive).
Turning to `O=C(c1ccc2c(c1)OCO2)N1CCN(c2ccc(C(F)(F)F)cc2)CC1`, the activity change, negative = cytotoxicity is -8.83% (inactive).
On the same count and under the same terms, then `CC(=O)c1ccc(N2CCN(C(=O)c3cc4c(cn3)OCO4)CC2)cc1`, with -11.9% (inactive); and `CC(=O)c1ccc(N2CCN(C(=O)c3cc(Cl)c4c(c3)OCO4)CC2)cc1`, with -6.52% (inactive).
On the same count and under the same terms, then `CC(=O)c1ccc(N2CCN(C(=O)Nc3ccc4c(c3)OCO4)CC2)cc1`, with -0.537% (inactive); and `O=C(c1ccc2c(c1)OCO2)N1CCN(c2ccc(OC(F)(F)F)cc2)CC1`, with -10.3% (inactive).
As to `CC(=O)c1ccc(N2CCN(C(=O)c3ccc(Cl)c(Cl)c3)CC2)cc1`, the activity change, negative = cytotoxicity is -9.71% (inactive).
Consider `COc1cc2c(cc1C(=O)N1CCN(c3ccc(C(C)=O)cc3)CC1)OCO2`, for which the activity change, negative = cytotoxicity is -3.95% (inactive).
`COc1ccc(C(=O)N2CCN(c3ccc(C(C)=O)cc3)CC2)cc1OC`: the activity change, negative = cytotoxicity is -1.09% (inactive).
As for `CC(=O)c1ccc(N2CCN(C(=O)c3ccc4snnc4c3)CC2)cc1`, the activity change, negative = cytotoxicity was -9.09% (inactive).
As to `CC(=O)c1ccc(N2CCN(C(=O)c3cc4c(cc3Cl)OCO4)CC2)cc1`, the activity change, negative = cytotoxicity is -7.51% (inactive).
Consider `CC(=O)c1ccc(N2CCN(C(=O)c3ccc4c(c3)OCO4)CC2)cc1`, for which the activity change, negative = cytotoxicity was -2.01% (inactive).
The same measure, in the same setting: under `CN(C)S(=O)(=O)c1ccc(N2CCN(C(=O)c3ccc4c(c3)OCO4)CC2)cc1` stands -16.1% (inactive).
Still for that read-out and setting: then `CC(=O)c1ccc(N2CCN(C(=O)c3cccc4c3OCO4)CC2)cc1`, with 0.216% (inactive).
As to `CC(=O)c1ccc(N2CCCN(C(=O)c3ccc4c(c3)OCO4)CC2)cc1`, the activity change, negative = cytotoxicity is 0.038% (inactive).
For the molecule `CS(=O)(=O)c1ccc(N2CCN(C(=O)c3ccc4c(c3)OCO4)CC2)cc1`, the activity change, negative = cytotoxicity is 3.29% (inactive).
On the same count and under the same terms, then `CC(=O)c1ccc(N2CCN(S(=O)(=O)c3ccc4c(c3)OCO4)CC2)cc1`, with -12.5% (inactive).
The same measure, in the same setting: under `CC(=O)c1ccc(N2CC3CC2CN3C(=O)c2ccc3c(c2)OCO3)cc1` (stereo unspecified) stands 4.9% (inactive).

A further test relates to HEK293T viability, ATP luminescence CellTiter-Glo, 72 h. Described as above.
Conditions: not given
As for `CC(=O)c1ccc(N2CCN(C(=O)c3cc4c(cc3C)OCO4)CC2)cc1`, the AC50 was > 52 µM (inactive).
As for `CC(=O)c1ccc(N2CCN(C(=O)c3ccc4c(c3)OC(C)(C)O4)CC2)cc1`, the AC50 was > 52 µM (inactive).
Take `O=C(c1ccc2c(c1)OCO2)N1CCN(c2ccc(S(=O)(=O)C(F)(F)F)cc2)CC1`: the AC50 is > 52 µM (inactive).
